# Publication PMC9458217, “Synthesis and Biological Evaluation of Cassane Diterpene (5α)-Vuacapane-8(14), 9(11)-Diene and of Some Related Compounds” (Molecules, 2022)
# Where “and” joins values, the source holds several entries; their conditions need not be identical. Equal entries are not always repeated. Where two headings read alike, the source gives them in different places.
# Legend:
# [1] = test system: HT29 colon adenocarcinoma cells; assay: HT29 cell cycle arrest and distribution, flow cytometry with PI; assay type: cell-based, human; conditions: for decrease in S phase cell percentage / increase of G0/G1 phase population with respect to untreated control: 72 h
# Description: Flow cytometry was used to measure DNA ploidy and to determine possible alterations in cell cycle profiles. […]. […] […]. Changes in the G2/M phase were less significant. Although changes in the cell cycle were observed, they were of a lower magnitude and insignificant for compound 20. Therefore, those changes could be produced by the apoptotic process activation and not by cytostatic or differentiation process induction. […]. Further assays will be necessary to asseverate this point.
# The method was performed by flow cytometry after propidium iodide staining (PI). […]. After that, cells were stored on ice and were stained with 20 µL of 1 mg/mL PI solution just before measurement. Approximately 10 × 10^3 cells were analysed in each experiment. The experiments were performed three times with two replicates per assay. Finally, the samples were analysed using a flow cytometer and the number of cells in each stage of the cell cycle was estimated by fluorescence-associated cell sorting (FACS) at 488 nm in an Epics XL flow cytometer (Coulter Corporation, Hialeah, FL, USA).
# [2] = test system: RAW 264.7 monocyte/macrophage murine cells; assay: MTT cytotoxicity on RAW 264.7 cells; assay type: cell-based; conditions: Mus musculus
# Experimental: MTT is transformed to formazan in cells with metabolism capacity (viable cells), as the number of viable cells is proportional to formazan concentration; this assay was used to determine the cytotoxicity of the compounds.
# In all experiments, subconfluent monolayer cells were used.
# The effect of compounds on the cell viability was determined by the MTT method (Sigma, St. Louis, MO, USA). The cytotoxicity of the compounds was detected by measuring the absorbance of MTT dye staining of cells with metabolism capacity. […] Finally, after 72 h, 100 μL of MTT solution (0.5 mg/mL) in 50% of PBS and 50% of the medium was added to each well. After 1.5 h of incubation, formazan was re-suspended in 100 μL of DMSO, and each concentration was tested in triplicate.
# (§1) Experimental cytotoxicity data were fitted to a sigmoidal function (y = ymax/ (x/a)^−b) by non-linear regression. […] Similar analyses were performed to obtain the IC50 of NO production (IC50 NO). All shown data are representative of at least two independent experiments performed in triplicate. All quantitative data were summarized as the means ± standard deviation (SD).
# [3] = test system: HT29 human colorectal adenocarcinoma cell line; assay: MTT cytotoxicity on HT29 cells; conditions: HT-29, 72 h
# Experimental: (§2) These studies were performed using the MTT assay, based on formazan dye formation and expressed as a percentage with respect to untreated control cells (100% of cell metabolism).
# (§3) The effect of compounds on the cell viability was determined by the MTT method [27] (Sigma, St. Louis, MO, USA). The cytotoxicity of the compounds was detected by measuring the absorbance of MTT dye staining of cells with metabolism capacity. […] Finally, after 72 h, 100 μL of MTT solution (0.5 mg/mL) in 50% of PBS and 50% of the medium was added to each well. After 1.5 h of incubation, formazan was re-suspended in 100 μL of DMSO, and each concentration was tested in triplicate.
# (§4) Experimental cytotoxicity data were fitted to a sigmoidal function (y = ymax/ (x/a)^−b) by non-linear regression. […] All shown data are representative of at least two independent experiments performed in triplicate. All quantitative data were summarized as the means ± standard deviation (SD).
# HT29 cells = assay: Annexin V-FITC/PI flow cytometry (apoptosis) in HT29 cells; assay type: cell-based, human; conditions: 72 h
# Experimental: Most currently used anticancer drugs trigger the apoptosis process as a key target and induce it in cancer cells. Phosphatidylserine (PS) externalization is a typical characteristic of early phase apoptosis. […].
# As such wise, apoptosis was assessed by flow cytometry using a FACScan (fluorescence-activated cell sorter) flow cytometer (Coulter Corporation, Hialeah, FL, USA). For this assay, 5 × 10^4 HT29 cells were plated in 24-well plates with 1.5 mL of medium and incubated for 24 h. […] The cells were collected and resuspended in a binding buffer (10 mM HEPES/NaOH, pH 7.4, 140 mM NaCl, 2.5 mM CaCl2). At room temperature in darkness, Annexin V-FITC conjugate (1 μg/mL) was then added and incubated for 15 min. Cells were stained with 5 μL of 1 mg/mL PI solution, just before the analysis. In each experiment, approximately 10 × 10^3 cells were analyzed, and the experiment was duplicated twice.
# [4] = test system: colon adenocarcinoma HT29 cells; assay: Mitochondrial membrane potential, Rh123/PI flow cytometry in HT29 cells; assay type: cell-based, human; conditions: HT29, IC50 and IC80 concentrations, 72 h
# Description: The apoptotic effects of anticancer agents can occur through the activation of two major apoptotic pathways: intrinsic and extrinsic apoptotic pathways, Thus, the study of the loss of the mitochondrial membrane potential (MMP) of tumor cells can provide information on the activation mechanism and the apoptotic pathway induced in response to anticancer compounds. When the mitochondria undergo disruption and are involved in the loss of MMP, the activation is then intrinsic (mitochondrial).
# The electrochemical gradient across the mitochondrial membrane was studied by analytical flow cytometry using dihydrorhodamine (DHR). […] The medium renewal was achieved by adding fresh medium with DHR to a final concentration of […]. […] The fluorescence intensity was measured using a FACScan flow cytometer (fluorescence-activated cell sorter). The experiments were performed three times with two replicates per assay.
# [5] = test system: LPS-induced J774.A1 macrophage cells; set-up: method as in PMID 34990974; conditions: 50 μM, natural compounds; cited from earlier work
# [6] = test system: RAW 264.7 cells, activated by LPS; assay: Cell cycle distribution of LPS-activated RAW 264.7 cells, flow cytometry with PI; assay type: cell-based, murine
# Experimental: The cell-cycle distribution was analyzed by flow cytometry with propidium iodide (IP) staining (Figure 3). Significant growth arrest of the cell cycle in LPS-induced RAW 264.7 cells produced 100% detention in the G0/G1 phase (positive control) compared to the negative control (49.6%). After incubation with compound 20, the percentage of cells found in the G0/G1 phase was 29%, 32%, and 36%, respectively, at the assayed concentrations. Similar results were found for compound 16 (35%, 38%, and 39%) after 72 h of incubation at the same concentrations. This decrease was accompanied by the consequent increase in the number of cells in the S phase: 70%, 68%, and 56%, respectively, for compound 20, and 63%, 61%, and 59% for compound 16. […] This recovery of the cell cycle with respect to control cells (only LPS treated) could be a consequence of the anti-inflammatory effect produced by the tested compounds, which increase cell division, rescuing RAW 264.7 cells from LPS-induced arrest during their monocyte/macrophage differentiation process.
# DNA content is directly proportional to the PI fluorescence; it allows us to determine the percentage of cells in each cell cycle phase. Using a fluorescence-activated cell sorter (FACS) at 488 nm in an Epics XL flow cytometer (Coulter Corporation, Hialeah, FL, USA), cell subpopulations could be visualized with different DNA contents. […] By treating cells only with LPS, the positive control was performed. However, the negative control was prepared, exposing cells […]. After treatment, cells were washed twice with PBS and trypsine solution, then resuspended in TBS 1X (10 Mm Tris, 150 Mm NaCl) and then Vindelov buffer (100 mM Tris, 100 Mm NaCl, 10 mg/mL Rnasa, 1 mg/mL PI, pH 8) was added. The samples were placed for 15 min on ice. Immediately before FACS analysis, cells were stained with 20 μL of 1 mg/mL PI solution. Data were analyzed to determine the percentage of cells in each cell cycle phase (G0/G1, S, and G2/M).
# [7] = test system: HepG2 human hepatocarcinome cell-line; assay: MTT cytotoxicity on HepG2 cells; conditions: HepG2, 72 h
# Experimental: as §2, §3, §4
# [8] = test system: LPS-stimulated RAW 264.7 murine macrophage cells; assay: Inhibition of NO production (nitrite, Griess reaction) in LPS-stimulated RAW 264.7 cells; assay type: cell-based; conditions: LPS-activated RAW 264.7, 72 h of incubation
# Experimental: The activation of the inflammatory process induces nitric oxide, NO, released as a second messenger. NO production can be used as the main indicator to assess inflammatory activity, which can be measured using nitrite (NO^2–) quantification (proportional to the released NO), determined through the Griess reaction. […] Inhibition percentages were calculated with respect to the increase between positive control (only LPS treated control cells) and negative control (untreated control cells).
# The absorbance was referred to nitrite standard curve to determine the concentration of nitrite in the supernatant of each experimental sample. The percentage of NO production was determined, assigning 100% at the increase between negative control (untreated cells) and positive control (cells only treated with 10 μg/mL of LPS).
# as §1
# Micrococcus flavus = test system: Micrococcus flavus; set-up: method as in PMID 17418286; conditions: cited from earlier work
# Staphylococcus aureus = test system: Staphylococcus aureus; set-up: method as in PMID 17418286; conditions: cited from earlier work
# NO = test system: NO; set-up: method as in PMID 34990974; conditions: read-out: NO inhibition IC50; cited from earlier work
smiles,measurement,setting,value
"Cc1c2c(cc3c1CCC1C(C)(C)CCCC31C)OC(O)C2 (centres unmarked) [Compound 6, pterolobirin G]",decrease in S phase cell percentage,"[1]; HT29, IC50 concentration",17.3%
same,increase of G0/G1 phase population with respect to untreated control,"[1]; HT29, IC50 concentration",13.6%
same,decrease in S phase cell percentage,"[1]; HT29, IC80 concentration",30.36%
same,increase of G0/G1 phase population with respect to untreated control,"[1]; HT29, IC80 concentration",29%
same,IC20,"[2]; RAW264.7, 72 h",12.7 ± 0.3 µg/mL
same,IC50,"[2]; RAW264.7, 72 h",15 ± 0.32 µg/mL
same,IC80,"[2]; RAW264.7, 72 h",18.6 ± 0.45 µg/mL
same,IC50,[3],~3 µg/mL
same,total apoptosis (early plus late apoptotic cells),"HT29 cells; HT29, IC50 concentration",18.30%
same,early apoptosis,"HT29 cells; HT29, IC80 concentration",48.83%
same,late apoptosis,"HT29 cells; HT29, IC80 concentration",23%
same,total apoptosis (early plus late apoptotic cells),"HT29 cells; HT29, IC80 concentration",80%
same,"changes in mitochondrial membrane potential (MMP), Rh123 staining",[4],did not produce any changes in MMP
same,inhibition of NO production,[5],did not show any significant inhibition of NO production
Cc1c(C=O)c(O)cc2c1CC[C@H]1C(C)(C)CCC[C@]21C [Compound 20],cell cycle arrest at the G0/G1 phase (cell percentage),"[1]; HT29, IC50 concentration",63.6%
same,decrease in S phase cell percentage,"[1]; HT29, IC50 concentration",6%
same,increase of G0/G1 phase population with respect to untreated control,"[1]; HT29, IC50 concentration",6%
same,cell cycle arrest at the G0/G1 phase (cell percentage),"[1]; HT29, IC80 concentration",66.6%
same,decrease in S phase cell percentage,"[1]; HT29, IC80 concentration",10.7%
same,increase of G0/G1 phase population with respect to untreated control,"[1]; HT29, IC80 concentration",9%
same,cells in the S phase,"[6]; ¼ IC50, 72 h",70%
same,percentage of cells in the G0/G1 phase,"[6]; ¼ IC50, 72 h, LPS control 100%, negative control 49.6%",29%
same,changes in the G2/M phase,"[6]; ¼, ½ and ¾ IC50, 72 h",not significant
same,cells in the S phase,"[6]; ½ IC50, 72 h",68%
same,percentage of cells in the G0/G1 phase,"[6]; ½ IC50, 72 h",32%
same,cells in the S phase,"[6]; ¾ IC50, 72 h",56%
same,percentage of cells in the G0/G1 phase,"[6]; ¾ IC50, 72 h",36%
same,IC20,"[2]; RAW264.7, RAW 264.7, MTT, 72 h of incubation, 20% cell viability inhibition, read-out: IC20",7.86 ± 3.97 µg/mL
same,IC80,"[2]; RAW264.7, RAW 264.7, MTT, 72 h of incubation, 80% cell viability inhibition, read-out: IC80",9.35 ± 0.95 µg/mL
same,IC50,"[2]; RAW264.7, RAW 264.7, MTT, 72 h of incubation, read-out: IC50",8.34 ± 2.51 µg/mL
same,IC50,"[3]; HT29, MTT, 72 h",~3 µg/mL
same,early apoptosis,"HT29 cells; HT29, IC50 concentration",27.57%
same,late apoptosis,"HT29 cells; HT29, IC50 concentration",49.97%
same,total apoptosis (early plus late apoptotic cells),"HT29 cells; HT29, IC50 concentration",76.25%
same,early apoptosis,"HT29 cells; HT29, IC80 concentration",41.40%
same,late apoptosis,"HT29 cells; HT29, IC80 concentration",45.40%
same,total apoptosis (early plus late apoptotic cells),"HT29 cells; HT29, IC80 concentration",80% and 86.8%
same,IC50,[7],8.41 ± 0.3 µg/mL
same,IC50 NO,[8],2.98 ± 0.04 µg/mL
same,IC50,"[8]; Mus musculus, RAW264.7, 72 h",5.71 ± 0.14 µg/mL
same,"changes in mitochondrial membrane potential (MMP), Rh123 staining",[4],did not produce any changes in MMP
COC(=O)[C@@]1(C)CCC[C@]2(C)c3cc4occc4c(C)c3CC[C@@H]12 [benthaminin 1],MIC,Micrococcus flavus,47.8 µM
same,MIC,Staphylococcus aureus,47.8 µM
CC(=O)O[C@H]1Cc2c(cc3occc3c2C)[C@@]2(C)CCCC(C)(C)[C@H]12 [sucutinirane C],IC50,NO,24.4 ± 1.34 µM
